# Activity calls are given as the source filed them. The rule behind the calls is not given here.
# Tests used:
# [1] = target: T1, Purine nucleoside phosphorylase (Homo sapiens) (UniProt P00491); assay: Inhibitory activity against purine nucleoside phosphorylase at a concentration of 6 mM; NA = No activity
# T1 sequence (whole entry): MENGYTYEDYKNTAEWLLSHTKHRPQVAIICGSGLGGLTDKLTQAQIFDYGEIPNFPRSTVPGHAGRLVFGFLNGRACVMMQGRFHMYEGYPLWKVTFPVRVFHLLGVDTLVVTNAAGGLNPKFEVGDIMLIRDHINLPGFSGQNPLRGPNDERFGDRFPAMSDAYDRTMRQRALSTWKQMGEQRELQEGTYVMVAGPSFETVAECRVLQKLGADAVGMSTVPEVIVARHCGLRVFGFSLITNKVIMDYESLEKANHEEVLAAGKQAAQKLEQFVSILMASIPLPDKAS
# [2] = Inhibitory activity against uridine phosphorylase at a concentration of 4 mM by using 5-fluorouracil and ribose 1-phosphate as substrates; NI = No inhibition
SMILES,inhibition [1],inhibition [2]
O=P(O)(O)C[C@H]1O[C@H](CO)[C@@H](O)[C@H]1O,inactive,inactive
O=P(O)(O)C[C@@H]1O[C@H](CO)[C@@H](O)[C@H]1O,inactive,

# Reference: ChEMBL document CHEMBL1122706, “2,5-Anhydro-1-deoxy-1-phosphono-D-altritol, an isosteric analogue of alpha-D-ribofuranose 1-phosphate” (J Med Chem, 1984)
